Experimental data from US20200345021A1, “METHOD AND SYSTEM FOR ENHANCING THE EFFICACY USING IONIZED/A[…] PEROXIDE IN REDUCING MICROBIAL POPULATIONS, METHOD OF USE THEREOF” (priority 2019, published 2020).
Where “and” joins values, the source holds several entries; their conditions need not be identical. Equal entries are not always repeated. Where two headings read alike, the source gives them in different places. Marks after values point to notes of the source that are not given here.

Legend:
Listeria innocua = test: Effect of cold plasma activation on efficacy of ionized/aerosolized H2O2 against Listeria innocua (Study 2); format: cell-based
Text: (§1) To minimize the risk of possible bacteria becoming airborne during treatments, attenuated and non-pathogenic bacteria were used in the study. Two strains of non-pathogenic S. Typhimurium (ATCC 53647 and 53648) and three strains of L. innocua (ATCC 33090, ATCC 51742 and ATCC BAA680) were obtained from American Type Culture Collection (ATCC) (Manassas, Va., USA). Further studies used E. coli O157:H7 (ATCC 700728), S. Typhimurium (ATCC 53647 and 53648), and L. innocua (ATCC 33090) obtained from American Type Culture Collection (ATCC) (Manassas, Va., USA) and maintained as a part of the culture collection at the USDA Eastern Regional Research Center (Wyndmoor, Pa. USA). The bacteria were made to be resistant to nalidixic acid by successive growth in Trypic Soy Broth (TSB) (Difco, Sparks, Md., USA) with increasing nalidixic acid concentrations. All strains were stored at −80° C. in 1 mL of TSB containing 10% glycerol. Working cultures of S. Typhimurium and L. innocua were maintained in 9 mL TSB (supplemented with 100 μg/mL nalidixic acid for S. Typhimurium) at 4° C. after incubating at 37° C. for […], respectively, and sub-cultured each time.
(§2) Each strain of S. Typhimurium and L. innocua was cultured in 9 mL TSB (supplemented with 100 μg/mL nalidixic acid for S. Typhimurium) and incubated at 37° C. for 40 h and 48 h, respectively, harvested by centrifugation at 4000×g for 10 min at 4° C., and resuspended in 9 mL sterile Buffered Peptone Water (BPW; Difco). The pellets were resuspended in BPW to form cell suspensions with a final concentration of 108˜10^9 CFU/mL. Subsequently, suspended pellets of two strains of Salmonella and three strains of L. innocua were combined to obtain two separate culture cocktails.
(§3) Grape tomatoes, granny smith apples, romaine lettuce and cantaloupes were purchased from local markets (Philadelphia, Pa., USA) and kept at 10° C. prior to use. Fruits and vegetables were removed from 10° C. refrigeration and equilibrated to ambient temperature before being inoculated. Romaine lettuce was divided into upper green leaf and midrib tissues. Six tomatoes, six pieces (2×2 cm) of apple skins, five pieces (3×3 cm) of Romaine lettuce upper leaves, five pieces (3 cm length) of Romaine lettuce midrib area and six pieces (2×2 cm) of cantaloupe rinds with 2×3 mm thickness of flesh were used for each treatment per replicate. Bach piece w as spot inoculated with 10 μL of Salmonella and L. innocua by depositing droplets with a micropipette. The inoculated samples were dried in a bio-hood for 1 h (for tomato surfaces, romaine lettuce, apple skins and cantaloupe rinds) or 2 h (for tomato stem scars) at ambient temperature.
(§4) Produce items were placed onto a sterile test tube rack with the inoculated area facing up and the rack with produce pieces were placed inside of a treatment chamber (12×12×24 inch).
(§5) Therefore, each kind of produce was treated with and without cold plasma ionized under the same optimized conditions.
(§6) After each treatment, the tomato stem scars and surfaces with the inoculated bacteria were removed using a pair of sterile scissors. Each type of produce item from the same treatment was combined (total weight: 1.51±0.29 g for tomato stem scars; 2.07±0.15 g for tomato surfaces; 6.37±0.92 g for apple skins; 1.62±0.34 g for Romaine lettuce upper leaves: 13.30±2.97 g for Romaine lettuce midrib tissues: 9.58±1.26 g for cantaloupe rinds) and transferred into an 80 mL filtered stomacher bag. After addition of 30 mL BBL buffered peptone water into the bag, the sample in the bag was homogenized using a mini blender (Mini Mix CC, Interscience laboratories Inc., Woburn, Mass., USA) for 2 min at a setting of 4. […] Tryptic Soy Agar with 200 μg/mL pyruvate acid and 100 μg/mL nalidixic acid (TSA-PN) and PALCAM Agars (Difco) were used for the enumeration of S. Typhimurium and L. innocua, respectively.

Salmonella Typhimurium = format: cell-based
Text: as §1, §2, §3, §4, §5, §6

[1] = Cantaloupe rind, 30 s spray time + 30 min dwell
[2] = Romaine lettuce-midrib, 30 s spray time + 30 min dwell
[3] = Romaine lettuce-upper leaf, 30 s spray time + 30 min dwell
[4] = Tomato-stem scar, three cycles of 20 s spray time plus 20 min dwell time
[5] = Tomato-surface, 8 s spray time + 30 min dwell

## OO [H2O2 − cold plasma, hydrogen peroxide]
Listeria innocua; [1]
  Reductions of Listeria innocua: 1.57 ± 0.37^y log CFU/piece
Listeria innocua; Cantaloupe rind, 30 s spray time + 30 min dwell, ND1: not detectable (detection limit 0.70 log CFU/piece)
  Populations of Listeria innocua: 3.88 ± 0.37^b log CFU/piece
Listeria innocua; Granny Smith apple, 8 s spray time + 30 min dwell
  Reductions of Listeria innocua: 2.69 ± 0.20^y log CFU/piece
Listeria innocua; Granny Smith apple, 8 s spray time + 30 min dwell, ND1: not detectable (detection limit 0.70 log CFU/piece)
  Populations of Listeria innocua: 2.90 ± 0.20^b log CFU/piece
Listeria innocua; [2]
  Reductions of Listeria innocua: 3.77 ± 0.35^y log CFU/piece
Listeria innocua; Romaine lettuce-midrib, 30 s spray time + 30 min dwell, ND2: not detectable (detection limit 0.76 log CFU/piece)
  Populations of Listeria innocua: 1.82 ± 0.35^b log CFU/piece
Listeria innocua; Romaine lettuce-midrib, 30 s spray time + 30 min dwell, listed as hydrogen peroxide (H2O2) aerosols without cold plasma
  Reductions of Listeria innocua: 3.77 log CFU/piece
Listeria innocua; [3]
  Reductions of Listeria innocua: 2.77 ± 0.34^y log CFU/piece
Listeria innocua; Romaine lettuce-upper leaf, 30 s spray time + 30 min dwell, ND2: not detectable (detection limit 0.76 log CFU/piece)
  Populations of Listeria innocua: 2.80 ± 0.34^b log CFU/piece
Listeria innocua; [4]
  Populations of Listeria innocua: 4.21 ± 0.60^b log CFU/piece
  Reductions of Listeria innocua: 1.35 ± 0.60^y log CFU/piece
Listeria innocua; Tomato-stem scar, three cycles of 20 s spray time plus 20 min dwell time, listed as hydrogen peroxide (H2O2) aerosols without cold plasma
  Reductions of Listeria innocua: 1.35 log CFU/piece
Listeria innocua; [5]
  Reductions of Listeria innocua: 2.74 ± 0.21^y log CFU/piece
Listeria innocua; Tomato-surface, 8 s spray time + 30 min dwell, ND1: not detectable (detection limit 0.70 log CFU/piece)
  Populations of Listeria innocua: 2.77 ± 0.21^b log CFU/piece
Salmonella Typhimurium; [1]
  Populations of Salmonella Typhimurium: 4.83 ± 0.36^b log CFU/piece
  Reductions of Salmonella Typhimurium: 1.54 ± 0.36^y log CFU/piece
Salmonella Typhimurium; Granny Smith apples, 8 s spray time + 30 min dwell
  Reductions of Salmonella Typhimurium: 2.08 ± 0.17^y log CFU/piece
Salmonella Typhimurium; Granny Smith apples, 8 s spray time + 30 min dwell, ND: not detectable (detection limit 0.70 log CFU/piece)
  Populations of Salmonella Typhimurium: 3.77 ± 0.17^b log CFU/piece
Salmonella Typhimurium; Granny Smith apples, 8 s spray time + 30 min dwell, listed as hydrogen peroxide (H2O2) aerosols without cold plasma
  Reductions of Salmonella Typhimurium: 2.08 log CFU/piece
Salmonella Typhimurium; [2]
  Populations of Salmonella Typhimurium: 4.16 ± 0.28^b log CFU/piece
  Reductions of Salmonella Typhimurium: 1.78 ± 0.28^y log CFU/piece
Salmonella Typhimurium; [3]
  Populations of Salmonella Typhimurium: 4.70 ± 0.23^b log CFU/piece
  Reductions of Salmonella Typhimurium: 1.72 ± 0.23^y log CFU/piece
Salmonella Typhimurium; [4]
  Populations of Salmonella Typhimurium: 4.40 ± 0.28^b log CFU/piece
  Reductions of Salmonella Typhimurium: 1.54 ± 0.28^y log CFU/piece
Salmonella Typhimurium; [5]
  Reductions of Salmonella Typhimurium: 3.17 ± 0.33^y log CFU/piece
Salmonella Typhimurium; Tomato-surface, 8 s spray time + 30 min dwell, ND: not detectable (detection limit 0.70 log CFU/piece)
  Populations of Salmonella Typhimurium: 2.46 ± 0.33^b log CFU/piece
Salmonella Typhimurium; Tomato-surface, 8 s spray time + 30 min dwell, listed as hydrogen peroxide (H2O2) aerosols without cold plasma
  Reductions of Salmonella Typhimurium: 3.17 log CFU/piece
Salmonella Typhimurium; all tested produce items and surfaces, optimized conditions, listed as hydrogen peroxide (H2O2) aerosols without cold plasma
  Reductions of Salmonella, range over the fresh produce items: 1.54-3.17 log CFU/piece and 1.53-3.17 log CFU/piece
